Data published in DBAASP.
In brackets after ≈: the same amount, converted by molar mass. Several values for one entry are separate records, joined by “and”; a condition that tells them apart may be missing. Identical values can stand only once.

Tests used:
Assay in all cases: ≥ marks a high value that may be exact or a test limit, other limits are often not marked, values filed in µg/mL are converted to µM
[1] = tested on: Pseudomonas aeruginosa ATCC 27853
[2] = tested on: Escherichia coli ATCC 25922
[3] = tested on: Enterococcus faecalis ATCC 29212
[4] = tested on: Staphylococcus epidermidis PIA 8400
[5] = tested on: Staphylococcus aureus ATCC 29213
[6] = tested on: Staphylococcus aureus ATCC 8530
Escherichia coli W160-37 = tested on: Escherichia coli W160-37
[7] = tested on: Saccharomyces cerevisiae ATCC 8530
[8] = tested on: Pseudomonas putida NCIM 2102
Micrococcus luteus MT166 = tested on: Micrococcus luteus MT166
Bacillus subtilis = tested on: Bacillus subtilis
Escherichia coli = tested on: Escherichia coli
[9] = tested on: Candida albicans ATCC 90028
Listeria innocua = tested on: Listeria innocua
[10] = tested on: Pseudomonas aeruginosa ATCC 9027
[11] = tested on: Salmonella enterica subsp. enterica serovar Enteritidis
[12] = tested on: Staphylococcus aureus USA 300
Micrococcus luteus = tested on: Micrococcus luteus
[13] = tested on: Staphylococcus aureus USA 100
[14] = tested on: Escherichia coli ATCC 54127
[15] = tested on: Staphylococcus aureus ATCC 25923
[16] = tested on: Pseudomonas aeruginosa CIP A22
Escherichia coli O157 = tested on: Escherichia coli O157
[17] = tested on: Klebsiella pneumoniae ATCC 13883
[18] = tested on: Enterococcus faecalis ATCC 19433
[19] = tested on: Salmonella typhimurium C587
Cutibacterium acnes C2 = tested on: Cutibacterium acnes C2
[20] = tested on: Pseudomonas aeruginosa PA14
[21] = tested on: Enterobacter cloacae 218R
[22] = tested on: Klebsiella pneumoniae 1549216
Acinetobacter baumannii = tested on: Acinetobacter baumannii
[23] = tested on: Acinetobacter baumannii ATCC 17987
[24] = tested on: Burkholderia cenocepacia 4813
[25] = tested on: Salmonella enterica subsp. enterica serovar Typhimurium ATCC 14028s
[26] = tested on: Pseudomonas aeruginosa PAO1
Escherichia coli HB101 = tested on: Escherichia coli HB101
Pseudomonas aeruginosa = tested on: Pseudomonas aeruginosa
[27] = tested on: Klebsiella pneumoniae KPLN649
[28] = tested on: Mycobacterium tuberculosis H37Rv
Cutibacterium acnes PJI2 = tested on: Cutibacterium acnes PJI2
[29] = tested on: Bacillus subtilis VKM B-886
[30] = tested on: Staphylococcus aureus 209P
[31] = tested on: Candida parapsilosis ATCC 22019
[32] = tested on: Klebsiella pneumoniae CI 287
Candida albicans SC5314 = tested on: Candida albicans SC5314
[33] = tested on: Cryptococcus neoformans var. grubii H99
Candida krusei IFM 56881 = tested on: Candida krusei IFM 56881
[34] = tested on: Micrococcus luteus VKM B-1314
Escherichia coli ML-35p = tested on: Escherichia coli ML-35p
Escherichia coli JM109 = tested on: Escherichia coli JM109
[35] = tested on: Escherichia coli BL21(DE3)
Cupriavidus necator H16 = tested on: Cupriavidus necator H16
[36] = tested on: Pseudomonas putida GPp104

Question: CC(C)C[C@H](NC(=O)[C@H](CCCN=C(N)N)NC(=O)[C@@H](N)Cc1ccc(O)cc1)C(=O)N[C@@H](CCCN=C(N)N)C(=O)N[C@H](C(=O)N[C@@H](CCCCN)C(=O)N[C@@H](Cc1c[nH]c2ccccc12)C(=O)N[C@@H](CCCCN)C(=O)N[C@@H](Cc1c[nH]c2ccccc12)C(N)=O)C(C)C [YRLRVKWKW] was tested. Which MIC [1] did it give?
Answer: 18.7 µM and 9.74 µM

Question: And the MIC [2]?
Answer: 9.74 µM (≈ 13 µg/mL)

Question: What about the MIC [3] of the same molecule?
Answer: 37.5 µM and 74.9 µM

Question: What about the MIC [4] of the same molecule?
Answer: 4.5 µM and 9.74 µM

Question: And the MIC [5]?
Answer: 9.74 µM (≈ 13 µg/mL)

Question: How did the MIC [6] turn out when CC[C@H](C)[C@@H]1NC(=O)[C@@H]2CCCN2C(=O)[C@H](CC(C)C)NC(=O)[C@@H]2CCCN2C(=O)[C@H]([C@@H](C)CC)NC(=O)[C@H](C)NC(=O)[C@H](Cc2ccc(O)cc2)NC(=O)[C@@H](NC(=O)[C@@H](NC(=O)[C@@H](N)CCCN=C(N)N)C(C)C)CSSC[C@@H](C(=O)N[C@@H](Cc2ccc(O)cc2)C(N)=O)NC1=O [RVCYAIPLPICY] was run?
Answer: 21.3 µM (≈ 29.9 µg/mL)

Question: And the MIC (Escherichia coli W160-37)?
Answer: 28.4 µM (≈ 39.9 µg/mL)

Question: And the MIC [7]?
Answer: ≥ 56.7 µM

Question: And the MIC [8]?
Answer: 28.4 µM (≈ 39.9 µg/mL)

Question: What about the MIC (Micrococcus luteus MT166) of the same molecule?
Answer: 21.3 µM (≈ 29.9 µg/mL)

Question: And the MIC (Bacillus subtilis)?
Answer: 21.3 µM (≈ 29.9 µg/mL)

Question: NC(N)=NCCC[C@H](N)C(=O)N[C@@H](Cc1ccc(O)cc1)C(=O)N[C@@H](Cc1cnc[nH]1)C(=O)O [RYH] was tested. Which MIC (Escherichia coli) did it give?
Answer: 4 µM (≈ 1.9 µg/mL)

Question: And the MIC [9]?
Answer: ≥ 100 µM

Question: And the MIC (Listeria innocua)?
Answer: 1 µM (≈ 0.475 µg/mL)

Question: And the MIC [10]?
Answer: > 100 µM

Question: And the MIC [11]?
Answer: 1 µM (≈ 0.475 µg/mL)

Question: What about the MIC [12] of the same molecule?
Answer: ≥ 100 µM

Question: What about the MIC (Micrococcus luteus) of the same molecule?
Answer: 4 µM (≈ 1.9 µg/mL)

Question: And the MIC [13]?
Answer: ≥ 100 µM

Question: For CC[C@H](C)[C@H](NC(=O)CNC(=O)[C@H](CCCCN)NC(=O)[C@H](CC(C)C)NC(=O)[C@H](CCSC)NC(=O)[C@H](CC(N)=O)NC(=O)[C@H](CCCCN)NC(=O)[C@H](Cc1c[nH]c2ccccc12)NC(=O)[C@H](CC(C)C)NC(=O)[C@H](C)N)C(=O)NCC(=O)N[C@@H](CCCCN)C(=O)N[C@@H](CC(C)C)C(=O)N[C@@H](C)C(=O)NCC(=O)N[C@@H](CCC(N)=O)C(=O)N[C@@H](C)C(=O)N[C@@H](C)C(=O)N[C@@H](CC(C)C)C(=O)NCC(=O)N[C@@H](C)C(=O)N[C@H](C(=O)N[C@@H](CCCCN)C(=O)N[C@H](C(=O)N[C@@H](CC(C)C)C(=O)N[C@H](C(=O)NCC(=O)N[C@@H](C)C(=O)O)C(C)C)[C@@H](C)O)C(C)C [ALWKNMLKGIGKLAGQAALGAVKTLVGA], which MIC [14] is on record?
Answer: 2.3 µM (≈ 6.39 µg/mL)

Question: And the MIC [1]?
Answer: 5 µM (≈ 13.9 µg/mL)

Question: And the MIC [2]?
Answer: 2.6 µM (≈ 7.23 µg/mL)

Question: And the MIC [15]?
Answer: 1.3 µM (≈ 3.61 µg/mL)

Question: What about the MIC [16] of the same molecule?
Answer: 2.3 µM (≈ 6.39 µg/mL)

Question: What does the source list for CC[C@H](C)[C@H](NC(=O)[C@H](CCCN=C(N)N)NC(=O)[C@@H](NC(=O)[C@H](C)NC(=O)[C@@H](NC(=O)[C@@H](NC(=O)[C@H](CC(C)C)NC(=O)[C@H](CCCN=C(N)N)NC(=O)[C@@H](N)C(C)C)[C@@H](C)CC)C(C)C)C(C)C)C(=O)N[C@@H](Cc1c[nH]c2ccccc12)C(=O)N[C@@H](CCCN=C(N)N)C(=O)N[C@@H](CCCN=C(N)N)C(N)=O [VRLIVAVRIWRR]?
Answer: MIC (Escherichia coli O157): 20.8 µM (≈ 32 µg/mL); MIC [17]: 5.21 µM (≈ 7.99 µg/mL); MIC [18]: ≥ 167 µM; MIC [19]: ≥ 41.6 µM; MIC (Cutibacterium acnes C2): ≥ 41.6 µM; MIC [20]: ≥ 41.6 µM and 20.8 µM; MIC [21]: ≥ 41.6 µM; MIC [22]: ≥ 41.6 µM; MIC (Acinetobacter baumannii): ≥ 83.3 µM; MIC [23]: ≥ 83.3 µM; MIC [24]: ≥ 167 µM; MIC [25]: ≥ 41.6 µM; MIC [15]: 167 µM (≈ 256 µg/mL); MIC [26]: 41.6 µM (≈ 64 µg/mL); MIC (Escherichia coli HB101): 20.8 µM (≈ 32 µg/mL); MIC (Pseudomonas aeruginosa): 12.4 µM (≈ 19 µg/mL); MIC [27]: 20.8 µM (≈ 32 µg/mL); MIC [28]: 10.4 µM (≈ 16 µg/mL); MIC (Cutibacterium acnes PJI2): ≥ 41.6 µM

Question: With CC[C@H](C)[C@@H]1NC(=O)CNC(=O)[C@H](CCCN=C(N)N)NC(=O)[C@H](Cc2ccc(O)cc2)NC(=O)[C@@H]2CSSC[C@H](NC1=O)C(=O)N[C@@H](Cc1ccc(O)cc1)C(=O)N[C@@H](CCCN=C(N)N)C(=O)N[C@@H](CCCCN)C(=O)N[C@H](C(=O)N[C@@H](CCCN=C(N)N)C(=O)O)CSSC[C@H](NC(=O)[C@H](Cc1c[nH]c3ccccc13)NC(=O)[C@@H](N)CCCCN)C(=O)N[C@@H](Cc1ccccc1)C(=O)N[C@@H](CCCN=C(N)N)C(=O)N[C@@H](C(C)C)C(=O)N2 [KWCFRVCYRGICYRKCR] as the molecule, how does the MIC [29] read?
Answer: 1 µM (≈ 2.24 µg/mL)

Question: What about the MIC [30] of the same molecule?
Answer: 0.5 µM (≈ 1.12 µg/mL)

Question: And the MIC [31]?
Answer: 7.14 µM (≈ 16 µg/mL)

Question: What about the MIC [32] of the same molecule?
Answer: 0.5 µM (≈ 1.12 µg/mL)

Question: What about the MIC (Candida albicans SC5314) of the same molecule?
Answer: 14.3 µM (≈ 31.9 µg/mL)

Question: And the MIC [33]?
Answer: 1.79 µM (≈ 4 µg/mL)

Question: What about the MIC (Candida krusei IFM 56881) of the same molecule?
Answer: 28.6 µM (≈ 63.9 µg/mL)

Question: What about the MIC [26] of the same molecule?
Answer: 0.5 µM (≈ 1.12 µg/mL)

Question: And the MIC [34]?
Answer: 2 µM (≈ 4.47 µg/mL)

Question: And the MIC (Escherichia coli ML-35p)?
Answer: 0.062 µM (≈ 0.139 µg/mL)

Question: What about the MIC [5] of the same molecule?
Answer: 16 µM (≈ 35.8 µg/mL)

Question: How did the MIC (Escherichia coli JM109) turn out when CC[C@H](C)[C@H](NC(=O)[C@H](Cc1ccc(O)cc1)NC(=O)[C@@H](NC(=O)[C@@H]1CCCN1C(=O)[C@H](CCCN=C(N)N)NC(=O)[C@H](CCCN=C(N)N)NC(=O)[C@@H](NC(=O)[C@@H](N)C(C)C)C(C)C)C(C)C)C(=O)N1CCC[C@H]1C(=O)N[C@@H](CCC(N)=O)C(=O)N1CCC[C@H]1C(=O)N[C@@H](CCCN=C(N)N)C(=O)N1CCC[C@H]1C(=O)N1CCC[C@H]1C(=O)N[C@@H](Cc1cnc[nH]1)C(=O)N1CCC[C@H]1C(=O)N[C@@H](CCCN=C(N)N)C(=O)N[C@@H](CC(C)C)C(=O)O [VVRRPVYIPQPRPPHPRL] was run?
Answer: 12.5 µM (≈ 27.2 µg/mL)

Question: And the MIC [35]?
Answer: 1.25 µM (≈ 2.72 µg/mL)

Question: And the MIC (Cupriavidus necator H16)?
Answer: ≥ 50 µM

Question: And the MIC [36]?
Answer: 25 µM (≈ 54.4 µg/mL)
